Laboratory results from the kinase profiling compilation of Christmann-Franck et al. (2016).
“And” between values parts separate entries of the source, which are not always exact repeats. Equal entries are not always repeated.

Key:
Experiment in all cases: radiometric filter-binding kinase assay, Kinase HotSpot
Settings in all cases: compound 0.5 µM; ATP 10 µM
PRKG1 (human) = PRKG1 (human) (UniProt Q13976)
ROCK1 (human) = ROCK1 (human) (UniProt Q13464)
PTK2 (human) = PTK2 (human) (UniProt Q05397)
NUAK2 (human) = NUAK2 (human) (UniProt Q9H093)
TEK (human) = TEK (human) (UniProt Q02763)
PRKCB2 (human) = PRKCB2 (human) (UniProt P05771)
MAP2K2 (human) = MAP2K2 (human) (UniProt P36507)
SLK (human) = SLK (human) (UniProt Q9H2G2)
KDR (human) = KDR (human) (UniProt P35968)
TNK2 (human) = TNK2 (human) (UniProt Q07912)
AKT1 (human) = AKT1 (human) (UniProt P31749)
WEE1 (human) = WEE1 (human) (UniProt P30291)
ACVR1B (human) = ACVR1B (human) (UniProt P36896)
CAMK4 (human) = CAMK4 (human) (UniProt Q16566)
CAMK2B (human) = CAMK2B (human) (UniProt Q13554)
CAMK1G (human) = CAMK1G (human) (UniProt Q96NX5)
PAK7 (human) = PAK7 (human) (UniProt Q9P286)
CAMK2A (human) = CAMK2A (human) (UniProt Q9UQM7)
MST4 (human) = MST4 (human) (UniProt Q9P289)
JAK3 JH1 JH2 (human) = JAK3 JH1 JH2 (human) (UniProt P52333)
SRPK1 (human) = SRPK1 (human) (UniProt Q96SB4)
DAPK3 (human) = DAPK3 (human) (UniProt O43293)
MAPK8 (human) = MAPK8 (human) (UniProt P45983)
PRKACA (human) = PRKACA (human) (UniProt P17612)
NTRK3 (human) = NTRK3 (human) (UniProt Q16288)
MAPK3 (human) = MAPK3 (human) (UniProt P27361)
GSK3A (human) = GSK3A (human) (UniProt P49840)
AXL (human) = AXL (human) (UniProt P30530)
NEK4 (human) = NEK4 (human) (UniProt P51957)
STK33 (human) = STK33 (human) (UniProt Q9BYT3)
LTK (human) = LTK (human) (UniProt P29376)
CDC42BPB (human) = CDC42BPB (human) (UniProt Q9Y5S2)
PLK3 (human) = PLK3 (human) (UniProt Q9H4B4)
MARK3 (human) = MARK3 (human) (UniProt P27448)
[1] = biological target: TYK2 JH1 catalytic (human) (UniProt P29597)
CSNK2A1 (human) = CSNK2A1 (human) (UniProt P68400)
MAPK12 (human) = MAPK12 (human) (UniProt P53778)
NTRK1 (human) = NTRK1 (human) (UniProt P04629)
RPS6KA2 KD1 KD2 (human) = RPS6KA2 KD1 KD2 (human) (UniProt Q15349)
GSK3B (human) = GSK3B (human) (UniProt P49841)
TSSK1B (human) = TSSK1B (human) (UniProt Q9BXA7)
MAPKAPK3 (human) = MAPKAPK3 (human) (UniProt Q16644)

Chain of SLK (human) (Q9H2G2 whole entry, looked up): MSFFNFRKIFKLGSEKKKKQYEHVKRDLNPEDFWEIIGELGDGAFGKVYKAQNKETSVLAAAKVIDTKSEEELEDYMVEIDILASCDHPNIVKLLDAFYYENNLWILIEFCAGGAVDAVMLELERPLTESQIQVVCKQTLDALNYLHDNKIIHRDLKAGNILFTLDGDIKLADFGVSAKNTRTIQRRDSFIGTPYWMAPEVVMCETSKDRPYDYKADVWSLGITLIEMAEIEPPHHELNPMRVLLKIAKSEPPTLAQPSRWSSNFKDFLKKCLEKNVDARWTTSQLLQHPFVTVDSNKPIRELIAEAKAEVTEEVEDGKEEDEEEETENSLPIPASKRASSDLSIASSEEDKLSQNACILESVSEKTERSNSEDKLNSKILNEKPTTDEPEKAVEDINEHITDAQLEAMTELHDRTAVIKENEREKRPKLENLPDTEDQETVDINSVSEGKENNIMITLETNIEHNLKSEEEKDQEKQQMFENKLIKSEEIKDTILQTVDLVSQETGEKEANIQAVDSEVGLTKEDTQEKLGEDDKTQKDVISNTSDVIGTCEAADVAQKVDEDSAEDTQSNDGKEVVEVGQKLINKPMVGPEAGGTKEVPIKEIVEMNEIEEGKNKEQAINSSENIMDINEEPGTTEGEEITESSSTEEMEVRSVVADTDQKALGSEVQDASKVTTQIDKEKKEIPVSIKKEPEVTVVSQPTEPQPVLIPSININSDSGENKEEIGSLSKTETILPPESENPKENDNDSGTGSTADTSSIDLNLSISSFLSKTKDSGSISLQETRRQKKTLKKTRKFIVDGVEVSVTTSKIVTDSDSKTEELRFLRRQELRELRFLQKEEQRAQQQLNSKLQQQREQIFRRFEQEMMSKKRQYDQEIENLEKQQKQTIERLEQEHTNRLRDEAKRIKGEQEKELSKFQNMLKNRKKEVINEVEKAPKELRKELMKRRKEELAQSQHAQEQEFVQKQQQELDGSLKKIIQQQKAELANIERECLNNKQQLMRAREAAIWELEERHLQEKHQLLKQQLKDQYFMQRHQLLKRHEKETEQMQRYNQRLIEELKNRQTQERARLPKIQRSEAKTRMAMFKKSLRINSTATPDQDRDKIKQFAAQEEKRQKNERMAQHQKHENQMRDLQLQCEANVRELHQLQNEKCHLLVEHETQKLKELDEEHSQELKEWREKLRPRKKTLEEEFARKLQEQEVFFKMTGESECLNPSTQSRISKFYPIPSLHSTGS
Chain of GSK3B (human) (P49841 whole entry, looked up): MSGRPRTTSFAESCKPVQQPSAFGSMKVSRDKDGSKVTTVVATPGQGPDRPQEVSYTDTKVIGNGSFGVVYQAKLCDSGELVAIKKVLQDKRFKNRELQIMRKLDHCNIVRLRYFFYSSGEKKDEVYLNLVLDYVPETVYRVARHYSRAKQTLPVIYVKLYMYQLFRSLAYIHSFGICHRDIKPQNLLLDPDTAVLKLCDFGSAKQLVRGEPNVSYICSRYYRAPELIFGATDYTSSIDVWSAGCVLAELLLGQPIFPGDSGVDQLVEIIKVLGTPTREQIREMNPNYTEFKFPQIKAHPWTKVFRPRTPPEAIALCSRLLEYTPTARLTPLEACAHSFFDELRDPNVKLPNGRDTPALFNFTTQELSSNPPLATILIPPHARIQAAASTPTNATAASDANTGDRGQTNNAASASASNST
Chain of RPS6KA2 KD1 KD2 (human) (Q15349 whole entry, looked up): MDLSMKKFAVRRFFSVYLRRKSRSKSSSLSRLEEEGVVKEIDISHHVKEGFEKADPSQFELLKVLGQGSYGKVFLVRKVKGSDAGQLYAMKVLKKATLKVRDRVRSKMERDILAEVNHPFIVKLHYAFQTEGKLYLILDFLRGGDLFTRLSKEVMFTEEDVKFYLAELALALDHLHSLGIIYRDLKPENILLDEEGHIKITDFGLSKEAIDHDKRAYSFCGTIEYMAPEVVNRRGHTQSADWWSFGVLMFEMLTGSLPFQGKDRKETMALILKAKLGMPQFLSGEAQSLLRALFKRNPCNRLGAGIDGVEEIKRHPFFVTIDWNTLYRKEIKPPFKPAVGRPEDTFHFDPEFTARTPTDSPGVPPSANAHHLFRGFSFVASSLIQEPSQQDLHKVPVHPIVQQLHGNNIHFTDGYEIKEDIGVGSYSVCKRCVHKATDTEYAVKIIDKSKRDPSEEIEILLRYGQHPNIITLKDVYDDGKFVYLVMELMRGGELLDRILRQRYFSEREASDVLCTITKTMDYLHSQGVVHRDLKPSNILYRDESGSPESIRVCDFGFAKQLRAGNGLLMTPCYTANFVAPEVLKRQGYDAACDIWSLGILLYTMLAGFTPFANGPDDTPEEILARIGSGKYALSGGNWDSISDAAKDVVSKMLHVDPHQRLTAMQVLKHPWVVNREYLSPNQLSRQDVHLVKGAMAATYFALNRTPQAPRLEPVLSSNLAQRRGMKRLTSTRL
Chain of TYK2 JH1 catalytic (human) (P29597 whole entry, looked up): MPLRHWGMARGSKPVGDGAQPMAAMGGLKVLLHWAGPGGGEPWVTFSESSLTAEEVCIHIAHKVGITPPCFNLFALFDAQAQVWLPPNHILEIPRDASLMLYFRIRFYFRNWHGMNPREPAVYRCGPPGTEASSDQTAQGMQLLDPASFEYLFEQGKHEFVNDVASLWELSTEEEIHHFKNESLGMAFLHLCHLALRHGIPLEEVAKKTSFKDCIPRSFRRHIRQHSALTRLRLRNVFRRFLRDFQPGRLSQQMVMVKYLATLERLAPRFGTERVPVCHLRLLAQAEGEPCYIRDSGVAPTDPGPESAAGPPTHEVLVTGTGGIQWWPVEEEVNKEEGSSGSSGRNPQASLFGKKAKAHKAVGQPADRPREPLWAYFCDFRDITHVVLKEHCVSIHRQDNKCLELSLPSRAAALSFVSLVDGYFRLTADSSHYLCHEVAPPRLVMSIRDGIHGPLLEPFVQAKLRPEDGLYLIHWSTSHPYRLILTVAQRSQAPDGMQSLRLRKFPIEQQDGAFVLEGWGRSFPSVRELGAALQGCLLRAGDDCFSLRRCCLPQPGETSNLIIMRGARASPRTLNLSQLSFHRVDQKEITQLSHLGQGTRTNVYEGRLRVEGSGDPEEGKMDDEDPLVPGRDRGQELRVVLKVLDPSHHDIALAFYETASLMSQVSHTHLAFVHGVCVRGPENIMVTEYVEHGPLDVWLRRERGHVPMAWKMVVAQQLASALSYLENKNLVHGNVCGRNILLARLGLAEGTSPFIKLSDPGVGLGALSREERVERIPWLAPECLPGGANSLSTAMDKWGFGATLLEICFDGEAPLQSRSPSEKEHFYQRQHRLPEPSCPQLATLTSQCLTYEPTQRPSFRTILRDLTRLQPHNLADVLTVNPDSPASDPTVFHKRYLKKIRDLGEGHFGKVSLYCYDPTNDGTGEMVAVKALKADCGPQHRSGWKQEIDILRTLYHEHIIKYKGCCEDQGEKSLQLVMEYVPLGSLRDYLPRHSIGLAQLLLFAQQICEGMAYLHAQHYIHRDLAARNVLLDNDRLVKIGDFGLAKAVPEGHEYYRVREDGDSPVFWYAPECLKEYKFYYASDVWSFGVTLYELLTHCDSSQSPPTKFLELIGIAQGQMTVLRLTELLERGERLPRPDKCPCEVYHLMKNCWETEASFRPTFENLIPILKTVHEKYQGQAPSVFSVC
Chain of MST4 (human) (Q9P289 whole entry, looked up): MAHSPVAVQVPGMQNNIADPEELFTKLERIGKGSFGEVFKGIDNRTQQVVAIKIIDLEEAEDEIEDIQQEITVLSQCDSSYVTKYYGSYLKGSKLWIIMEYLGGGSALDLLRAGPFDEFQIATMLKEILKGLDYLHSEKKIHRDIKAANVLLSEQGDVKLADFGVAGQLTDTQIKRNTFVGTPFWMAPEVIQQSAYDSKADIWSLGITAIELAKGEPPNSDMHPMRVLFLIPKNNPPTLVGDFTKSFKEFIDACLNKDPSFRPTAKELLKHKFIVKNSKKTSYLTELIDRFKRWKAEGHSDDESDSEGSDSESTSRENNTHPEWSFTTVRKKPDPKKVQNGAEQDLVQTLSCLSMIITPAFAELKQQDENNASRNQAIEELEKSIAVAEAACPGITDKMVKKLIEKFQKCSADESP
Chain of PLK3 (human) (Q9H4B4 whole entry, looked up): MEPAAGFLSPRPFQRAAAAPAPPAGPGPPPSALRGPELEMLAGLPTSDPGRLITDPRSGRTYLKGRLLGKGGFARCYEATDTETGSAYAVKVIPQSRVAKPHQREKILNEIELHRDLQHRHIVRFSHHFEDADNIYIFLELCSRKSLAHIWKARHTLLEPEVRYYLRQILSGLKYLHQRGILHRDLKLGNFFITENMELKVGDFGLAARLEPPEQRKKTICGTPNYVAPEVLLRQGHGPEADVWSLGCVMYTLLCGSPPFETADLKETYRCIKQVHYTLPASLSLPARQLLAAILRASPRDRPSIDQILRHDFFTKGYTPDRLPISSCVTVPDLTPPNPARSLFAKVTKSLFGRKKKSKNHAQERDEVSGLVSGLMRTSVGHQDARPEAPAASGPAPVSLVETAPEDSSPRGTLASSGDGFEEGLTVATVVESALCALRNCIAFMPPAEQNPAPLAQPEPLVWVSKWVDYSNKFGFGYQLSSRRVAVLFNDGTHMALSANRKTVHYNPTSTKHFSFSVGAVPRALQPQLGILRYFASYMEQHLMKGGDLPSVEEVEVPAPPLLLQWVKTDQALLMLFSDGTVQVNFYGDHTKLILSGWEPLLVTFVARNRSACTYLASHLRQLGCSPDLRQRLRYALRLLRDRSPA
Chain of MAPK8 (human) (P45983 whole entry, looked up): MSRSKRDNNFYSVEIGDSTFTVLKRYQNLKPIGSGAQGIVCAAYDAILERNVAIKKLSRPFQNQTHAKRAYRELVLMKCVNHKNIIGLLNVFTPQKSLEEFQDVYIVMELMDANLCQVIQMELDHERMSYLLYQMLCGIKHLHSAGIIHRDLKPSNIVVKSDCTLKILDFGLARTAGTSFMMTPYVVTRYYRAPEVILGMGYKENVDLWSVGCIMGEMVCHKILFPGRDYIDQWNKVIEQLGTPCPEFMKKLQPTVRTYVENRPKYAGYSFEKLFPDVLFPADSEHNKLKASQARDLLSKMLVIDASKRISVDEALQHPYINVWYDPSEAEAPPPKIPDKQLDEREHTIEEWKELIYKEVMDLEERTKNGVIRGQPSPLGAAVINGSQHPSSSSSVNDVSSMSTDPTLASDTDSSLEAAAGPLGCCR

Structure (SMILES): CC(C)(C)c1cc(C=C(C#N)C#N)cc(Br)c1O
- residual activity (PRKG1 (human)): 103% and 107%
- residual activity (ROCK1 (human)): 82.9%
- residual activity (PTK2 (human)): 107%
- residual activity (NUAK2 (human)): 99.6%
- residual activity (TEK (human)): 97.9%
- residual activity (PRKCB2 (human)): 129%
- residual activity (MAP2K2 (human)): 85.8%
- residual activity (SLK (human)): 94.7%
- residual activity (KDR (human)): 97.8%
- residual activity (TNK2 (human)): 93.1%
- residual activity (AKT1 (human)): 108%
- residual activity (WEE1 (human)): 90.9%
- residual activity (ACVR1B (human)): 108%
- residual activity (CAMK4 (human)): 94.2%
- residual activity (CAMK2B (human)): 99.3%
- residual activity (CAMK1G (human)): 104%
- residual activity (PAK7 (human)): 119%
- residual activity (CAMK2A (human)): 104%
- residual activity (MST4 (human)): 95.2%
- residual activity (JAK3 JH1 JH2 (human)): 110%
- residual activity (SRPK1 (human)): 101%
- residual activity (DAPK3 (human)): 96.4%
- residual activity (MAPK8 (human)): 90.4%
- residual activity (PRKACA (human)): 102%
- residual activity (NTRK3 (human)): 104%
- residual activity (MAPK3 (human)): 105%
- residual activity (GSK3A (human)): 104%
- residual activity (AXL (human)): 103%
- residual activity (NEK4 (human)): 93.7%
- residual activity (STK33 (human)): 91.1%
- residual activity (LTK (human)): 96.5%
- residual activity (CDC42BPB (human)): 103%
- residual activity (PLK3 (human)): 94.6%
- residual activity (MARK3 (human)): 105%
- residual activity [1]: 61.3%
- residual activity (CSNK2A1 (human)): 99.3%
- residual activity (MAPK12 (human)): 102%
- residual activity (NTRK1 (human)): 100%
- residual activity (RPS6KA2 KD1 KD2 (human)): 98.9%
- residual activity (GSK3B (human)): 107%
- residual activity (TSSK1B (human)): 95.6%
- residual activity (MAPKAPK3 (human)): 103%

Structure (SMILES): Ic1cccc(CSc2nnc(-c3ccncc3)o2)c1
- residual activity (PRKG1 (human)): 92.1% and 95.5%
- residual activity (ROCK1 (human)): 88%
- residual activity (PTK2 (human)): 106%
- residual activity (NUAK2 (human)): 98.9%
- residual activity (TEK (human)): 92.6%
- residual activity (PRKCB2 (human)): 91.2%
- residual activity (MAP2K2 (human)): 102%
- residual activity (SLK (human)): 98.6%
- residual activity (KDR (human)): 78.1%
- residual activity (TNK2 (human)): 101%
- residual activity (AKT1 (human)): 98.6%
- residual activity (WEE1 (human)): 97.2%
- residual activity (ACVR1B (human)): 102%
- residual activity (CAMK4 (human)): 91.6%
- residual activity (CAMK2B (human)): 95.4%
- residual activity (CAMK1G (human)): 95.9%
- residual activity (PAK7 (human)): 99.3%
- residual activity (CAMK2A (human)): 92.3%
- residual activity (MST4 (human)): 103%
- residual activity (JAK3 JH1 JH2 (human)): 106%
- residual activity (SRPK1 (human)): 103%
- residual activity (DAPK3 (human)): 107%
- residual activity (MAPK8 (human)): 84.7%
- residual activity (PRKACA (human)): 94.6%
- residual activity (NTRK3 (human)): 104%
- residual activity (MAPK3 (human)): 95.8%
- residual activity (GSK3A (human)): 42.7%
- residual activity (AXL (human)): 99.2%
- residual activity (NEK4 (human)): 93.7%
- residual activity (STK33 (human)): 111%
- residual activity (LTK (human)): 103%
- residual activity (CDC42BPB (human)): 96.6%
- residual activity (PLK3 (human)): 96.1%
- residual activity (MARK3 (human)): 124%
- residual activity [1]: 105%
- residual activity (CSNK2A1 (human)): 97.3%
- residual activity (MAPK12 (human)): 93%
- residual activity (NTRK1 (human)): 96%
- residual activity (RPS6KA2 KD1 KD2 (human)): 101%
- residual activity (GSK3B (human)): 59.8%
- residual activity (TSSK1B (human)): 97.6%
- residual activity (MAPKAPK3 (human)): 109%

Structure (SMILES): COc1ccc(C(=O)Nc2sc3c(c2C(N)=O)CCCC3)cc1OC
- residual activity (PRKG1 (human)): 87.5% and 97%
- residual activity (ROCK1 (human)): 107%
- residual activity (PTK2 (human)): 116%
- residual activity (NUAK2 (human)): 99.5%
- residual activity (TEK (human)): 96.4%
- residual activity (PRKCB2 (human)): 93.5%
- residual activity (MAP2K2 (human)): 95.3%
- residual activity (SLK (human)): 92.5%
- residual activity (KDR (human)): 78.2%
- residual activity (TNK2 (human)): 93.4%
- residual activity (AKT1 (human)): 99.7%
- residual activity (WEE1 (human)): 92.3%
- residual activity (ACVR1B (human)): 101%
- residual activity (CAMK4 (human)): 95.7%
- residual activity (CAMK2B (human)): 99.9%
- residual activity (CAMK1G (human)): 99.4%
- residual activity (PAK7 (human)): 96.6%
- residual activity (CAMK2A (human)): 100%
- residual activity (MST4 (human)): 96.6%
- residual activity (JAK3 JH1 JH2 (human)): 108%
- residual activity (SRPK1 (human)): 82.6%
- residual activity (DAPK3 (human)): 102%
- residual activity (MAPK8 (human)): 94.7%
- residual activity (PRKACA (human)): 102%
- residual activity (NTRK3 (human)): 57.7%
- residual activity (MAPK3 (human)): 95.2%
- residual activity (GSK3A (human)): 83.6%
- residual activity (AXL (human)): 84.4%
- residual activity (NEK4 (human)): 104%
- residual activity (STK33 (human)): 99.5%
- residual activity (LTK (human)): 40.5%
- residual activity (CDC42BPB (human)): 94.5%
- residual activity (PLK3 (human)): 95%
- residual activity (MARK3 (human)): 94.1%
- residual activity [1]: 117%
- residual activity (CSNK2A1 (human)): 98.8%
- residual activity (MAPK12 (human)): 96.5%
- residual activity (NTRK1 (human)): 104%
- residual activity (RPS6KA2 KD1 KD2 (human)): 112%
- residual activity (GSK3B (human)): 97.7%
- residual activity (TSSK1B (human)): 115%
- residual activity (MAPKAPK3 (human)): 97.2%

Structure (SMILES): COc1cc2ncnc(Nc3ccc(OCc4ccccc4)cc3)c2cc1OC
- residual activity (PRKG1 (human)): 90.3% and 99.3%
- residual activity (ROCK1 (human)): 96.6%
- residual activity (PTK2 (human)): 105%
- residual activity (NUAK2 (human)): 101%
- residual activity (TEK (human)): 97.9%
- residual activity (PRKCB2 (human)): 106%
- residual activity (MAP2K2 (human)): 98.5%
- residual activity (SLK (human)): 76.4%
- residual activity (KDR (human)): 96.8%
- residual activity (TNK2 (human)): 53.1%
- residual activity (AKT1 (human)): 103%
- residual activity (WEE1 (human)): 94.7%
- residual activity (ACVR1B (human)): 102%
- residual activity (CAMK4 (human)): 101%
- residual activity (CAMK2B (human)): 105%
- residual activity (CAMK1G (human)): 97.1%
- residual activity (PAK7 (human)): 99.6%
- residual activity (CAMK2A (human)): 107%
- residual activity (MST4 (human)): 91.6%
- residual activity (JAK3 JH1 JH2 (human)): 108%
- residual activity (SRPK1 (human)): 105%
- residual activity (DAPK3 (human)): 99.2%
- residual activity (MAPK8 (human)): 102%
- residual activity (PRKACA (human)): 101%
- residual activity (NTRK3 (human)): 93.8%
- residual activity (MAPK3 (human)): 98.4%
- residual activity (GSK3A (human)): 104%
- residual activity (AXL (human)): 94.8%
- residual activity (NEK4 (human)): 86.9%
- residual activity (STK33 (human)): 109%
- residual activity (LTK (human)): 98.6%
- residual activity (CDC42BPB (human)): 98.8%
- residual activity (PLK3 (human)): 98%
- residual activity (MARK3 (human)): 106%
- residual activity [1]: 103%
- residual activity (CSNK2A1 (human)): 95.8%
- residual activity (MAPK12 (human)): 102%
- residual activity (NTRK1 (human)): 97.1%
- residual activity (RPS6KA2 KD1 KD2 (human)): 100%
- residual activity (GSK3B (human)): 119%
- residual activity (TSSK1B (human)): 106%
- residual activity (MAPKAPK3 (human)): 102%
